According to patent US20090270477A1, “POLYMORPHS OF A HYDROISOINDOLINE TACHYKININ RECEPTOR ANTAGONIST” (priority 2006, published 2009):

Assay: Relative thermodynamic stability of the two anhydrous crystalline forms (enantiotropic pair)
Type: physicochemical
Details: freebase of compound of structural formula A; Form I and Form II are enantiotropic

SMILES: C[C@@H](O[C@H]1CC[C@@H]2CN(C3=CC(=O)CC3)C[C@H]2[C@@H]1c1ccc(F)cc1)c1cc(C(F)(F)F)cc(C(F)(F)F)c1 [Form II]
- temperatures at which the form is thermodynamically more stable: above 72 °C

SMILES: C[C@@H](O[C@H]1CC[C@@H]2CN(C3=CC(=O)CC3)C[C@H]2[C@@H]1c1ccc(F)cc1)c1cc(C(F)(F)F)cc(C(F)(F)F)c1 [Form I]
- temperatures at which the form is thermodynamically more stable: below 72 °C
